Laboratory results taken from PubChem BioAssay AID328 (DTP/NCI, 2004).
“And” between values parts separate entries of the source, which are not always exact repeats. Equal values may be shown once. Inconclusive results and toxic doses are left out.

Tested on: BDF1 mice, P388 leukemia ip, median survival T/C
Experiment: NCI In Vivo Anticancer Drug Screen. Data for tumor model P388 Leukemia (intraperitoneal) in B6D2F1 (BDF1) mice
Settings: endpoint: median survival time, higher = longer survival
Method in brief: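 Steps: implant the tumour, treat one group with compound and another with vehicle, record survival, then divide treated by control.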

[1] = dose: 12.5 mg/kg/injection, schedule: Q01DX009 (ip), vehicle: saline
[2] = dose: 25.0 mg/kg/injection, schedule: Q01DX009 (ip), vehicle: saline
[3] = dose: 50.0 mg/kg/injection, schedule: Q04DX003 (ip), vehicle: saline with Tween-80
[4] = dose: 100.0 mg/kg/injection, schedule: Q04DX003 (ip), vehicle: saline with Tween-80
[5] = dose: 200.0 mg/kg/injection, schedule: Q04DX003 (ip), vehicle: saline with Tween-80
[6] = dose: 50.0 mg/kg/injection, schedule: Q04DX003 (ip), vehicle: water
[7] = dose: 100.0 mg/kg/injection, schedule: Q04DX003 (ip), vehicle: water
[8] = dose: 400.0 mg/kg/injection, schedule: Q04DX003 (ip), vehicle: saline with Tween-80

For `c1ccc2c(c1)Sc1ccccc1N2CCCN1CCCC1`, the T/C (dose: 6.25 mg/kg/injection, schedule: Q01DX009 (ip), vehicle: saline) was 104 % of control, the T/C [1] was 104 % of control and the T/C [2] was 122 % of control.
In the case of `CCCCCCCCCCCCOc1ccccc1`, the T/C [3] is reported as 100 % of control, the T/C [4] is reported as 109 % of control and the T/C [5] is reported as 100 % of control.
`COc1cc2cnccc2cc1O` was tested, and the T/C (dose: 6.25 mg/kg/injection, schedule: Q04DX003 (ip), vehicle: water) was 97 % of control, the T/C (dose: 12.5 mg/kg/injection, schedule: Q04DX003 (ip), vehicle: water) was 98 % of control and the T/C (dose: 25.0 mg/kg/injection, schedule: Q04DX003 (ip), vehicle: water) was 118 % of control. The T/C [6] was 95 % of control and the T/C [7] was 98 % of control.
For `O=C(Nc1ccc(C2=NCCCN2)cc1)c1ccc(NC(=O)c2ccc(C3=NCCCN3)cc2)cc1`, the T/C (dose: 13.2 mg/kg/injection, schedule: Q04DX003 (ip), vehicle: saline with Tween-80) was 160 % of control and 168 % of control, the T/C (dose: 20.0 mg/kg/injection, schedule: Q04DX003 (ip), vehicle: saline with Tween-80) was 181 % of control and 220 % of control and the T/C (dose: 30.0 mg/kg/injection, schedule: Q04DX003 (ip), vehicle: saline with Tween-80) was 263 % of control and 300 % of control.
`O=C1C(C2OC2c2ccccc2)CCCC1C1OC1c1ccccc1` (configuration not stated) was tested, and the T/C (dose: 100.0 mg/kg/injection, schedule: Q04DX003 (ip), vehicle: saline sonified) was 100 % of control, the T/C (dose: 200.0 mg/kg/injection, schedule: Q01DX009 (ip), vehicle: saline with Tween-80) was 91 % of control and the T/C (dose: 200.0 mg/kg/injection, schedule: Q04DX003 (ip), vehicle: saline sonified) was 95 % of control. For the same molecule, the T/C (dose: 400.0 mg/kg/injection, schedule: Q01DX009 (ip), vehicle: saline with Tween-80) was 87 % of control and the T/C (dose: 400.0 mg/kg/injection, schedule: Q04DX003 (ip), vehicle: saline sonified) was 95 % of control.
For `CCOC(=O)C(NC(C)=O)(C(=O)OCC)C(C)C(O)c1ccc(OC)c(OC)c1O` (configuration not stated), the T/C [2] was 100 % of control, the T/C (dose: 50.0 mg/kg/injection, schedule: Q01DX009 (ip), vehicle: saline) was 100 % of control and the T/C (dose: 100.0 mg/kg/injection, schedule: Q01DX009 (ip), vehicle: saline) was 109 % of control. The T/C (dose: 200.0 mg/kg/injection, schedule: Q01DX009 (ip), vehicle: saline) was 122 % of control and the T/C (dose: 400.0 mg/kg/injection, schedule: Q01DX009 (ip), vehicle: saline) was 100 % of control.
With `CN(C)c1ccc(/C=C/c2nc3ccccc3o2)cc1` the T/C (dose: 100.0 mg/kg/injection, schedule: Q04DX003 (ip), vehicle: Klucel (hydroxypropylcellulose) (HPC)) was 90 % of control, the T/C (dose: 200.0 mg/kg/injection, schedule: Q04DX003 (ip), vehicle: Klucel (hydroxypropylcellulose) (HPC)) was 90 % of control and the T/C (dose: 400.0 mg/kg/injection, schedule: Q04DX003 (ip), vehicle: Klucel (hydroxypropylcellulose) (HPC)) was 100 % of control.
In the case of `O=S(=O)(CCl)OCCCCOS(=O)(=O)CCl`, the T/C (dose: 66.0 mg/kg/injection, schedule: Q01DX009 (ip), vehicle: saline) is reported as 104 % of control.
`CCCCCCCCCCCCCCCC(=O)Oc1ccc(/C(CC)=C(/CC)c2ccc(OC(=O)CCCCCCCCCCCCCCC)cc2)cc1` was tested, and the T/C [4] was 90 % of control, the T/C [5] was 89 % of control and the T/C [8] was 89 % of control.
`CS(=O)(=O)OCCCCCOS(C)(=O)=O` was tested, and the T/C [1] was 95 % of control, the T/C [2] was 100 % of control and the T/C (dose: 50.0 mg/kg/injection, schedule: Q04DX003 (ip), vehicle: saline) was 113 % of control.
With `O=Cc1ccc(OC(=O)Nc2ccccc2)cc1` the T/C [4] was 113 % of control, the T/C [5] was 122 % of control and the T/C [8] was 86 % of control.
For `CCCCCCCC(=O)NN`, the T/C (dose: 3.12 mg/kg/injection, schedule: Q01DX009 (ip), vehicle: other) was 96 % of control, the T/C (dose: 6.25 mg/kg/injection, schedule: Q01DX009 (ip), vehicle: other) was 98 % of control and the T/C (dose: 12.5 mg/kg/injection, schedule: Q01DX009 (ip), vehicle: other) was 99 % of control. For the same molecule, the T/C (dose: 25.0 mg/kg/injection, schedule: Q01DX009 (ip), vehicle: other) was 117 % of control, the T/C (dose: 50.0 mg/kg/injection, schedule: Q01DX009 (ip), vehicle: other) was 117 % of control and the T/C [6] was 91 % of control. For the same molecule, the T/C (dose: 100.0 mg/kg/injection, schedule: Q01DX009 (ip), vehicle: other) was 92 % of control, the T/C [7] was 124 % of control and the T/C (dose: 200.0 mg/kg/injection, schedule: Q01DX009 (ip), vehicle: other) was 97 % of control.
With `CNC(=N)c1ccc(NC(=N)c2ccc(NC(=N)c3ccc(NC(=O)Nc4ccc(C#N)cc4)cc3)cc2)cc1` the T/C (dose: 3.0 mg/kg/injection, schedule: Q04DX003 (ip), vehicle: saline with Tween-80) was 123 % of control, the T/C (dose: 14.0 mg/kg/injection, schedule: Q04DX003 (ip), vehicle: saline with Tween-80) was 163 % of control and the T/C (dose: 16.0 mg/kg/injection, schedule: Q01DX009 (ip), vehicle: saline with Tween-80) was 157 % of control. The T/C (dose: 24.0 mg/kg/injection, schedule: Q01DX009 (ip), vehicle: saline with Tween-80) was 173 % of control and 200 % of control, the T/C (dose: 33.0 mg/kg/injection, schedule: Q04DX003 (ip), vehicle: saline with Tween-80) was 250 % of control and 168 % of control and 200 % of control and the T/C (dose: 37.0 mg/kg/injection, schedule: Q01DX009 (ip), vehicle: saline with Tween-80) was 230 % of control. The T/C (dose: 37.5 mg/kg/injection, schedule: Q01DX009 (ip), vehicle: saline with Tween-80) was 153 % of control, the T/C (dose: 50.0 mg/kg/injection, schedule: Q01DX009 (ip), vehicle: saline with Tween-80) was 103 % of control and the T/C [3] was 250 % of control and 186 % of control. The T/C (dose: 75.0 mg/kg/injection, schedule: Q04DX003 (ip), vehicle: saline with Tween-80) was 250 % of control and 172 % of control and the T/C (dose: 112.0 mg/kg/injection, schedule: Q04DX003 (ip), vehicle: saline with Tween-80) was 216 % of control.
